Where two headings read alike, the source gives them in different places.
Columns and labels:
[1] = molecular target: T1, AHR (Homo sapiens, UniProt P35869); assay: In vitro assay 1: antagonism in human cell line (AHR transactivation, firefly luciferase reporter, kynurenic acid prestimulated); type: cell-based; conditions: AHR Antagonism Human IC50 [M]
T1 construct: U87 MG glioblastoma cells (ATCC #HTB-14) endogenously expressing AHR; endogenous in cells; host or cells: U87 MG glioblastoma cells (ATCC #HTB-14)
T1 sequence (P35869 11-848): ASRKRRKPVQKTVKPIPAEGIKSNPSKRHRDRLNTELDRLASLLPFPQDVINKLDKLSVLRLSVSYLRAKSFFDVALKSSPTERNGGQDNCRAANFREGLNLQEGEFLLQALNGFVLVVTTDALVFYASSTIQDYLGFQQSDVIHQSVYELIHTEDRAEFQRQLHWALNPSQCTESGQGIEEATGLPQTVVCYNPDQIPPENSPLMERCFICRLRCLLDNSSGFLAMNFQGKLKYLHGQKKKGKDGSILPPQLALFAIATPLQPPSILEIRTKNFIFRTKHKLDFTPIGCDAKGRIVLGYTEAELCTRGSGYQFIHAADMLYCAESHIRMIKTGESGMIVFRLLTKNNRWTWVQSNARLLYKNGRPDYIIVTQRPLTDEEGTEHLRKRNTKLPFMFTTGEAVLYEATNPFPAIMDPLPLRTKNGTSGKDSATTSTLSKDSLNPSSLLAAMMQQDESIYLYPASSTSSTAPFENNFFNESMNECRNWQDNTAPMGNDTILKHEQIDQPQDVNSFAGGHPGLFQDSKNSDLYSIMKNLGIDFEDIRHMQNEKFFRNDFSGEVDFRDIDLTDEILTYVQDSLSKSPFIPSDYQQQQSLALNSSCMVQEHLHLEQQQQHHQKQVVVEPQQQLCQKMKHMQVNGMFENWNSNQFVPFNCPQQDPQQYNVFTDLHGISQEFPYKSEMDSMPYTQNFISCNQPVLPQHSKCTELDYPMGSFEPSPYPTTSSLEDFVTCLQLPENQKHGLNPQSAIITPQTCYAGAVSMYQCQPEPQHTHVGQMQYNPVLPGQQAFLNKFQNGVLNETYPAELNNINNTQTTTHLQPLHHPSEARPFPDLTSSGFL
How it was run: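 U87 MG + DRE-firefly/constitutive-Renilla stable reporters; kynurenic acid prestim; dual-luc read; Renilla = tox; normalized vs pos/neg controls (pos: 150 μM KYNA + 5 μM staurosporine).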

[2] = molecular target: T2, AHR (Mus musculus, UniProt P30561); assay: In vitro assay 3: antagonism in mouse cell line (AHR transactivation, firefly luciferase reporter, kynurenic acid prestimulated); type: cell-based; conditions: 200 μM kynurenic acid, 20 hours, read-out: AHR Antagonism Mouse IC50
T2 sequence (P30561 1-848 P471L/N533S/M589L): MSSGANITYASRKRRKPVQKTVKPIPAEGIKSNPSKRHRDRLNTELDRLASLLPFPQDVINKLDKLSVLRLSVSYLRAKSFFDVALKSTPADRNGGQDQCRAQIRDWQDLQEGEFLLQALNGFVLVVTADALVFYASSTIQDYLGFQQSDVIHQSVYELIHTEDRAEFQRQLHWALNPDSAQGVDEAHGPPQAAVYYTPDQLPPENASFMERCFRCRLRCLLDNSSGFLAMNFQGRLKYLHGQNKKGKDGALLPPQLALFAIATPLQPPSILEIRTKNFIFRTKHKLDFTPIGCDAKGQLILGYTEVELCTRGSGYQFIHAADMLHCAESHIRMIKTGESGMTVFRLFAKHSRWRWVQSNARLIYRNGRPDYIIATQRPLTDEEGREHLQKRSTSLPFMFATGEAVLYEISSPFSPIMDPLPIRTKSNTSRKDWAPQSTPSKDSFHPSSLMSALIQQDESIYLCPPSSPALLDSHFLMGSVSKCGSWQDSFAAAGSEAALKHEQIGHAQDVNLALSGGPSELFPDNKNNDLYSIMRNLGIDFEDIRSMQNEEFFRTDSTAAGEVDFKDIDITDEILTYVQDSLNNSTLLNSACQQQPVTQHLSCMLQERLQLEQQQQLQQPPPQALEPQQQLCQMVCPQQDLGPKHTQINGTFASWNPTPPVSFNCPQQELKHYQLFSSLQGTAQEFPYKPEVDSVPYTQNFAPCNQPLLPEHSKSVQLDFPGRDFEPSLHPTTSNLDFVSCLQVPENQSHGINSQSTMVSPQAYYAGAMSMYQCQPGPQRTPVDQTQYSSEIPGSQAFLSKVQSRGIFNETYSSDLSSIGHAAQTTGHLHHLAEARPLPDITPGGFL
How it was run: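 Cells were first stimulated with kynurenic acid, then exposed to test compound, after which firefly luciferase from a DRE-containing AHR reporter was read out. Signal was scaled between positive and negative controls. Cells not given kynurenic acid provided the inhibition reference.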

[3] = Hepa 1c1c7 cells, firefly luciferase reporter

| IC50 ([1]; firefly luciferase reporter) [M] | IC50 [2, 3] [nM] | IC50 [1] [M] | IC50 ([2]; mouse Hepa 1c1c7 cells) [nM] | Structure (SMILES) |
| --- | --- | --- | --- | --- |
| 3.09e-08 | 7.12 | – | – | COc1ccc(-c2nc3c4cccc(Br)c4nc(N[C@H]4CNCCNC4=O)n3n2)cc1 [Example 972, (6S)-6-{[7-bromo-2-(4-methoxyphenyl)[1,2,4]triazolo[1,5-c]quinazolin-5-yl]amino}-1,4-diazepan-5-one] |
| – | – | 3.03e-08 | 95.1 | Cn1cc(-c2nc3c4cccc(C#N)c4nc(N[C@@H]4CCCCNC4=O)n3n2)cn1 [Example 403, 2-(1-Methyl-1H-pyrazol-4-yl)-5-{[(3R)-2-oxoazepan-3-yl]amino}[1,2,4]triazolo[1,5-c]quinazoline-7-carbonitrile] |
| – | – | 2.1e-07 | 18.5 | CCCCNC(=O)[C@H](C)Nc1nc2c(Br)cccc2c2nc(-c3ccc(Cl)cc3OC(F)F)nn12 [Example 686, N^2-{7-bromo-2-[4-chloro-2-(difluoromethoxy)phenyl][1,2,4]triazolo[1,5-c]quinazolin-5-yl}-N-butyl-L-alaninamide] |
| – | – | 3.15e-09 | 1.78 | CC[C@@H](Nc1nc2ccccc2c2nc(-c3csc(C)c3)nn12)C(N)=O [Example 358] |
| 2.36e-09 | 1.68 | – | – | COc1ccc(-c2nc3c4cccc(Br)c4nc(N[C@H](C)C(=O)N4CCO[C@@H](C)C4)n3n2)cc1 [Example 909, (2R)-2-{[7-bromo-2-(4-methoxyphenyl)[1,2,4]triazolo[1,5-c]quinazolin-5-yl]amino}-1-[(2S)-2-methylmorpholin-4-yl]propan-1-one] |
| 8.12e-10 | 1.86 | – | – | CCn1cc(-c2nc3c4cccc(Br)c4nc(N[C@@H]4CNCCNC4=O)n3n2)c(C)n1 [Example 974] |
| – | – | 1.27e-07 | 253 | COc1cccc(-c2nc3c4c(C)cccc4nc(NC4CCCNC4=O)n3n2)c1 (stereo not shown) [Example 180, 3-{[2-(3-methoxyphenyl)-10-methyl[1,2,4]triazolo[1,5-c]quinazolin-5-yl]amino}piperidin-2-one] |
| – | – | 8.4e-09 | 4.3 | COc1ccc(-c2nc3c4cccc(Br)c4nc(N[C@@H]4CCCCNC4=O)n3n2)c(C(F)(F)F)c1 [Example 569, (3R)-3-({7-bromo-2-[4-methoxy-2-(trifluoromethyl)phenyl][1,2,4]triazolo[1,5-c]quinazolin-5-yl}amino)azepan-2-one] |
| – | – | 2.07e-08 | 3.76 | CCC[C@@H](Nc1nc2ccccc2c2nc(-c3cccc(OC(F)(F)F)c3)nn12)C(=O)NC [Example 316, N-methyl-N^2-{2-[3-(trifluoromethoxy)phenyl][1,2,4]triazolo[1,5-c]quinazolin-5-yl}-D-norvalinamide] |
| – | – | 3.44e-10 | 0.669 | CCn1cc(-c2nc3c4cccc(C(F)(F)F)c4nc(N[C@@H]4CCCCNC4=O)n3n2)c(C)n1 [Example 674, (3R)-3-{[2-(1-ethyl-3-methyl-1H-pyrazol-4-yl)-7-(trifluoromethyl)[1,2,4]triazolo[1,5-c]quinazolin-5-yl]amino}azepan-2-one] |
| 1.12e-09 | 0.885 | – | – | COc1ccc(-c2nc3c4cccc(Br)c4nc(N[C@H](C)C(=O)N4C[C@H]5C[C@@H]4CO5)n3n2)cc1 [Example 899, (2R)-2-{[7-bromo-2-(4-methoxyphenyl)[1,2,4]triazolo[1,5-c]quinazolin-5-yl]amino}-1-[(1R,4R)-2-oxa-5-azabicyclo[2.2.1]heptan-5-yl]propan-1-one] |
| – | – | 1.44e-09 | 2.96 | N#Cc1ccccc1-c1nc2c3ccccc3nc(N[C@@H]3CCCCNC3=O)n2n1 [Example 619, 2-(5-{[(3R)-2-oxoazepan-3-yl]amino}[1,2,4]triazolo[1,5-c]quinazolin-2-yl)benzonitrile] |
| 6.57e-09 | 15.8 | – | – | COc1ccc(-c2nc3c4cccc(Br)c4nc(N[C@@H](C(=O)O)C(C)C)n3n2)cc1 [Example 872, N-[7-bromo-2-(4-methoxyphenyl)[1,2,4]triazolo[1,5-c]quinazolin-5-yl]-D-valine] |
| – | – | 8.35e-08 | 86.8 | CC(C)(C)c1noc(-c2nc3c4ccccc4nc(N[C@@H]4CCCCNC4=O)n3n2)n1 [Example 134, (3R)-3-{[2-(3-tert-butyl-1,2,4-oxadiazol-5-yl)[1,2,4]triazolo[1,5-c]quinazolin-5-yl]amino}azepan-2-one] |
| – | – | 1.03e-09 | 0.227 | COc1cccc(-c2nc3c4cc(F)ccc4nc(N[C@@H]4CCCCNC4=O)n3n2)c1 [Example 159, (3R)-3-{[9-fluoro-2-(3-methoxyphenyl)[1,2,4]triazolo[1,5-c]quinazolin-5-yl]amino}azepan-2-one] |
| – | – | 3.28e-08 | 12.4 | CCC[C@@H](Nc1nc2ccccc2c2nc(-c3ccc(S(C)(=O)=O)cc3)nn12)C(=O)NC [Example 377, N^2-{2-[4-(methanesulfonyl)phenyl][1,2,4]triazolo[1,5-c]quinazolin-5-yl}-N-methyl-D-norvalinamide] |
| 3.26e-09 | 2.13 | – | – | COCCNC(=O)[C@H](Nc1nc2c(Br)cccc2c2nc(-c3ccc(OC)cc3)nn12)C(C)C [Example 923, N^2-[7-bromo-2-(4-methoxyphenyl)[1,2,4]triazolo[1,5-c]quinazolin-5-yl]-N-(2-methoxyethyl)-D-valinamide] |
| – | – | 4.02e-07 | 287 | COc1cccc(-c2nc3c4ccccc4nc(N[C@@H](C)C(N)=O)n3n2)c1 [Example 81] |
| – | – | 2.32e-08 | 5.98 | Cc1cncc(-c2nc3c4ccccc4nc(N[C@@H]4CCCCNC4=O)n3n2)c1 [Example 636, (3R)-3-{[2-(5-methylpyridin-3-yl)[1,2,4]triazolo[1,5-c]quinazolin-5-yl]amino}azepan-2-one] |
| – | – | 1.45e-07 | 63.8 | O=C1NCCNC[C@H]1Nc1nc2ccccc2c2nc(-c3ccccc3OC(F)(F)F)nn12 [Example 720, (6R)-6-({2-[2-(trifluoromethoxy)phenyl][1,2,4]triazolo[1,5-c]quinazolin-5-yl}amino)-1,4-diazepan-5-one] |
| 2.3e-08 | 19.5 | – | – | C[C@@H]1CN(C(=O)[C@@H](C)Nc2nc3c(Br)cccc3c3nc(-c4cnn(C)c4)nn23)CCO1 [Example 906, (2R)-2-{[7-bromo-2-(1-methyl-1H-pyrazol-4-yl)[1,2,4]triazolo[1,5-c]quinazolin-5-yl]amino}-1-[(2R)-2-methylmorpholin-4-yl]propan-1-one] |
| – | – | 4.25e-08 | 50.6 | O=C1NCCCC[C@H]1Nc1nc2ccccc2c2nc(-c3cnccc3C(F)(F)F)nn12 [Example 490, (3R)-3-({2-[4-(trifluoromethyl)pyridin-3-yl][1,2,4]triazolo[1,5-c]quinazolin-5-yl}amino)azepan-2-one] |
| – | – | 1.59e-09 | 1.05 | Cc1nn(C)cc1-c1nc2c3ccccc3nc(N[C@@H]3CCCCNC3=O)n2n1 [Example 605, (3R)-3-{[2-(1,3-dimethyl-1H-pyrazol-4-yl)[1,2,4]triazolo[1,5-c]quinazolin-5-yl]amino}azepan-2-one] |

Source: US20230113037A1 (Bayer Aktiengesellschaft, priority 2019, published 2023)
